The results in this text go back to publication PMC7249006, “Discovery of Novel Pyridazine-Based Cyclooxygenase-2 Inhibitors with a Promising Gastric Safety Profile” (Molecules, 2020).

“Also recorded” adds a separate entry of the source.

One data set has as its system gastric mucosa. Description: Lipid peroxidation studies (MDA content of gastric mucosa, TBA method). The conditions noted are these: gastric mucosa after the ulcerogenic activity test, 10 mg/kg orally.
In data set [1] the target is T1, (Ovis aries, UniProt P05979).
T1 construct: purchased Cayman Chemicals 560131
T1 sequence (P05979 25-600): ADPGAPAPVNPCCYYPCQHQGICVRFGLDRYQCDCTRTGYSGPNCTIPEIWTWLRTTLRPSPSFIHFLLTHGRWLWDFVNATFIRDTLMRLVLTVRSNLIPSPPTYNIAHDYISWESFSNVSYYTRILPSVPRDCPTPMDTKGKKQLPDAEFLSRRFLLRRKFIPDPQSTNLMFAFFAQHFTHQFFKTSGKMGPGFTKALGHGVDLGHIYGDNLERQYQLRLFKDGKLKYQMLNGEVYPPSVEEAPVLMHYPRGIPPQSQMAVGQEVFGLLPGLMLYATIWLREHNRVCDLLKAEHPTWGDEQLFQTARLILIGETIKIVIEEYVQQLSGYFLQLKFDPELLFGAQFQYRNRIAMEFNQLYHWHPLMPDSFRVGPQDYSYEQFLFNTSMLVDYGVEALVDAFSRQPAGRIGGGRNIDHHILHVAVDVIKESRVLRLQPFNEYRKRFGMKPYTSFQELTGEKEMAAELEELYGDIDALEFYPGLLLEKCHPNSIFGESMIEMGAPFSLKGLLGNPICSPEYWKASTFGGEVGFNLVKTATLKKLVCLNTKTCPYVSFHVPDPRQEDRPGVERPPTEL
Description: In vitro COX-1 inhibition assay (Cayman kit 560131, ELISA). The format is biochemical, human. The following applies: N = 3, Mean ± SD. The procedure: (§1) The supplier’s instructions were followed to prepare the reagents as well as to perform the experiment. Briefly, samples (20 μL), the COX-1 and COX-2 enzyme (10 μL), and heme (10 μL) were mixed with the buffer solution (160 μL), which was supplied with the kits. […] A saturated solution of stannous chloride (30 μL) was added after 2 min to halt the COX reaction. The resultant mixture was incubated at ambient temperature for 5 min. The Prostaglandin-2α (PGF2α) developed after the COX reaction was measured through ELISA. […] The plate was washed to get rid of the unbound components. […] The IC50 values of COX-1 and COX-2 were determined by the regression analysis.

Another data set deals with T2, human COX-2 (Homo sapiens, UniProt P35354).
T2 construct: purchased Cayman Chemicals 560131
T2 sequence (P35354 18-604): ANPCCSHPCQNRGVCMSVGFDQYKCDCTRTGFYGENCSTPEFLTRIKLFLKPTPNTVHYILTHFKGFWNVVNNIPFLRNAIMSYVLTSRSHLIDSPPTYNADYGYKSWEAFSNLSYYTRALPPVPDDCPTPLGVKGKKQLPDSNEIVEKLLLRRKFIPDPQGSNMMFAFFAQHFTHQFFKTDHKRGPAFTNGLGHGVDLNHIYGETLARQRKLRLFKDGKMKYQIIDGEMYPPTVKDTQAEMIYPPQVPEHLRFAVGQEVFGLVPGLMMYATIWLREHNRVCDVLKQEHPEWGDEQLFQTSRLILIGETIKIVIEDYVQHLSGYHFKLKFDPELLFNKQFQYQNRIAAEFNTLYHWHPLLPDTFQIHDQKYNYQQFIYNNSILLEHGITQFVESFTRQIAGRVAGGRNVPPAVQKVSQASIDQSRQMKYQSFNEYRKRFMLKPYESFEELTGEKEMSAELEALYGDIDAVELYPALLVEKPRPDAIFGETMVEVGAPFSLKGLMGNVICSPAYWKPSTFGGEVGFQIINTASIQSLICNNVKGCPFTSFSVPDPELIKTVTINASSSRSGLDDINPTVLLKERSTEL
Description: In vitro COX-2 inhibition assay (Cayman kit 560131, ELISA). The format is biochemical. The conditions noted are these: for SI (Selectivity index): IC50 for COX-1/IC50 for COX-2; for IC50: N = 3, Mean ± SD; for %SI: selectivity index normalized to celecoxib = 100%. The procedure: as §1

Another data set concerns gastric ulcers in rats. Description: Gastric ulcerogenic activity. The following applies: 10 mg/kg orally; for ulcerogenic effect (in words): rats; for Score: No of Gastric Ulcers / Score: Severity Lesions: rats fasted 18 h, sacrificed after 4 h, Mean ± SE.

Description for gastric mucosa: A decrease in the MDA content is a measure to assess the non-ulcerogenic effect of a compound.
The obtained mixture was extracted with a 5-mL mixture (15:1 v/v) of n-butanol and pyridine and centrifuged at 4000 rpm for 10 min. […] A standard linear curve (absorbance vs. concentration in nM) was prepared using MDA tetrabutylammonium salt. The lipid peroxidation was calculated from the standard curve. The results are expressed as nmol MDA 100 mg^−1 tissues.
Description for gastric ulcers in rats: A total of eight groups of rats were utilized, wherein each group comprised of six rats.
The eight groups of rats were fasted for 18 h, wherein each group consisted of 6 rats. […] Saline solution (1 mL) was given to the control group. The animals were sacrificed after 4 h to isolate their stomachs. A longitudinal cut was made along the greater curvature, and the presence of ulcers was evaluated. The counting of ulcers was marked as 0 (no ulcer) to 5 (≥ 3 ulcers) [30].

Take `Cc1ccc(-c2cc(C(F)(F)F)nn2-c2ccc(S(N)(=O)=O)cc2)cc1` [Celecoxib, celecoxib, reference compound]: in the data set on gastric mucosa, the “MDA Content in nmol (100 mg Tissue)” value is reported as 6.11 ± 0.50 nmol (100 mg Tissue).
The compound `NN=Cc1ccc(-n2nc(-c3ccccc3)ccc2=O)cc1` [Compound 4a, 2-(4-(Hydrazineylidenemethyl)phenyl)-6-phenylpyridazin-3(2H)-one] had a melting point of 235 to 236 °C. Further, in data set [1], it took 235 ± 0.11 nM to reach half-maximal inhibition (IC50). For the same compound, on human COX-2, the “SI (Selectivity index)” value was determined as 8.97, the IC50 came out at 26.2 ± 0.5 nM and the “%SI” value is on record as 49.88%.
For `O=C1CSC(NN=Cc2ccc(-n3nc(-c4ccccc4)ccc3=O)cc2)=N1` [Compound 6a, 2-(2-(4-(6-Oxo-3-phenylpyridazin-1(6H)-yl)benzylidene)hydrazineyl)thiazol-4(5H)-one], in that order: 250 to 252 °C, 260 ± 0.22 nM, 10.35, 25.1 ± 0.15 nM and 57.56%.
The compound `CC1SC(NN=Cc2ccc(-n3nc(-c4ccccc4)ccc3=O)cc2)=NC1=O` (stereo not drawn) [Compound 6b, 5-Methyl-2-(2-(4-(6-oxo-3-phenylpyridazin-1(6H)-yl)benzylidene)hydrazineyl)thiazol-4(5H)-one] showed a melting point of 285 to 286 °C. The same compound gave an IC50 in data set [1] of 280 ± 0.5 nM. For the same compound, at human COX-2, the “SI (Selectivity index)” value was found to be 12.30, 22.75 ± 0.1 nM corresponded to half-maximal inhibition (IC50) and the “%SI” value is 68.40%.
`CCOC(=O)c1sc(N/N=C/c2ccc(-n3nc(-c4ccccc4)ccc3=O)cc2)nc1C` [Compound 8, Ethyl 4-methyl-2-(2-(4-(6-oxo-3-phenylpyridazin-1(6H)-yl)benzylidene)hydrazineyl) thiazole-5-carboxylate] displayed a melting point of 245 to 246 °C. In data set [1], this compound registered an IC50 of 250 ± 0.12 nM. Besides, at human COX-2, the “SI (Selectivity index)” value was determined as 10.33, the IC50 was found to be 24.18 ± 0.14 nM and the “%SI” value is recorded as 57.45%.
Consider `O=c1ccc(-c2ccccc2)nn1-c1ccc(C=NNc2nc(-c3ccccc3)cs2)cc1` [Compound 9a, 6-Phenyl-2-(4-((2-(4-phenylthiazol-2-yl)hydrazinylidene)methyl)phenyl)pyridazin-3(2H)-one], for which the melting point lay within 280 to 281 °C. Further, in the data set with gastric ulcers in rats, the “ulcerogenic effect (in words)” value is recorded as “No ulcerogenic effects; also recorded: did not produce any ulcerogenic impact; also recorded: devoid of any ulcerogenic effect”, the “Score: No of Gastric Ulcers” value was 0 and the “Score: Severity Lesions” value amounted to 0. For the same compound, in the data set on gastric mucosa, the “MDA Content in nmol (100 mg Tissue)” value is recorded as 3.05 ± 0.12 nmol (100 mg Tissue). This compound yielded an IC50 in data set [1] of 330 ± 0.28 nM. The compound also returned an IC50 against human COX-2 of 15.5 ± 0.55 nM.
Turning to `O=c1ccc(-c2ccccc2)nn1-c1ccc(C=NNc2nc(-c3ccc(Br)cc3)cs2)cc1` [Compound 9b, 2-(4-((2-(4-(4-Bromophenyl)thiazol-2-yl)hydrazineylidene)methyl)phenyl)-6-phenylpyridazin-3(2H)-one], the melting point fell in the range of 261 to 262 °C. Also, in the data set on gastric ulcers in rats, the “ulcerogenic effect (in words)” value was “insignificant ulcerogenic effects”, the “Score: No of Gastric Ulcers” value is reported as 0.33 ± 0.38 and the “Score: Severity Lesions” value came out at 0.26 ± 0.16. Further, in the data set with gastric mucosa, the “MDA Content in nmol (100 mg Tissue)” value is 3.89 ± 0.50 nmol (100 mg Tissue). This compound also gave an IC50 in data set [1] of 275 ± 0.42 nM. The IC50 against human COX-2 turned out to be 17.5 ± 0.6 nM.
Compound `COC(=O)C=C1SC(=NN=Cc2ccc(-n3nc(-c4ccccc4)ccc3=O)cc2)NC1=O` [Compound 10, Methyl2-(4-oxo-2-((4-(6-oxo-3-phenylpyridazin-1(6H)-yl)benzylidene)hydrazineylidene) -thiazolidin-5-ylidene)acetate] registered a half-maximal inhibitory concentration (IC50) in data set [1] of 285 ± 0.15 nM. For the same compound, on human COX-2, the “SI (Selectivity index)” value was found to be 12.89, the IC50 amounted to 22.1 ± 0.55 nM and the “%SI” value worked out at 71.69%.
For `CN(C)C=C1SC(NN=Cc2ccc(-n3nc(-c4ccccc4)ccc3=O)cc2)=NC1=O` [Compound 11, 5-((dimethylamino)methylene)-2-(2-(4-(6-oxo-3-phenylpyridazin-1(6H)-yl)benzylidene) hydrazineyl) thiazol-4(5H)-one], in that order: 270 ± 0.24 nM, 10.75, 25.11 ± 0.11 nM and 59.78%.
Regarding `O=C1N=C(NN=Cc2ccc(-n3nc(-c4ccccc4)ccc3=O)cc2)SC1=C1C(=O)Nc2ccccc21` [Compound 12, 2-(2-(4-(6-oxo-3-phenylpyridazin-1(6H)-yl)benzylidene)hydrazineyl)-5-(2-oxoindolin-3-ylidene) thiazol-4(5H)-one], in the data set with gastric ulcers in rats, the “ulcerogenic effect (in words)” value is reported as “No ulcerogenic effects; also recorded: did not produce any ulcerogenic impact; also recorded: devoid of any ulcerogenic effect”, the “Score: No of Gastric Ulcers” value is 0 and the “Score: Severity Lesions” value is reported as 0. Further, in the data set with gastric mucosa, the “MDA Content in nmol (100 mg Tissue)” value is 2.95 ± 0.44 nmol (100 mg Tissue). Moreover, the half-inhibitory concentration (IC50) in data set [1] was found to be 295 ± 0.28 nM. Moreover, at human COX-2, half-maximal inhibition (IC50) required 17.1 ± 0.19 nM.
For the compound `O=C1N=C(N/N=C/c2ccc(-n3nc(-c4ccccc4)ccc3=O)cc2)S/C1=C\c1ccc(Cl)cc1` [Compound 16a, 5-(4-Chlorobenzylidene)-2-(2-(4-(6-oxo-3-phenylpyridazin-1(6H)-yl)benzylidene)-hydra-zinyl)thiazol-4(5H)-one], the melting point was 297 to 298 °C. Also, inhibition in data set [1] was half-maximal at 275 ± 0.1 nM (IC50). For the same compound, on human COX-2, the “SI (Selectivity index)” value is 12.40, 22.2 ± 0.44 nM corresponded to half-maximal inhibition (IC50) and the “%SI” value turned out to be 68.96%.
The compound `COc1ccc(/C=C2\SC(N/N=C/c3ccc(-n4nc(-c5ccccc5)ccc4=O)cc3)=NC2=O)cc1` [Compound 16b, 5-(4-Methoxybenzylidene)-2-(2-(4-(6-oxo-3-phenylpyridazin-1(6H)-yl)benzylidene)hydra-zineyl)thiazol-4(5H)-one] returned a melting point of more than 300 °C. In addition, in the data set with gastric ulcers in rats, the “ulcerogenic effect (in words)” value is on record as “insignificant ulcerogenic effects”, the “Score: No of Gastric Ulcers” value came to 0.12 ± 0.30 and the “Score: Severity Lesions” value turned out to be 0.18 ± 0.22. The “MDA Content in nmol (100 mg Tissue)” value in the data set on gastric mucosa is recorded as 3.45 ± 0.28 nmol (100 mg Tissue). In data set [1], half-maximal inhibition (IC50) was put at 315 ± 0.33 nM. Moreover, at human COX-2, inhibition was half-maximal at 16.9 ± 0.16 nM (IC50).
For `O=C1CSC(=NN=Cc2ccc(-n3nc(-c4ccccc4)ccc3=O)cc2)N1c1ccccc1` [Compound 17, 2-((4-(6-oxo-3-phenylpyridazin-1(6H)-yl)benzylidene)hydrazineylidene)-3-phenyl thiazolidin-4-one], in the data set with gastric ulcers in rats, the “ulcerogenic effect (in words)” value was “insignificant ulcerogenic effects”, the “Score: No of Gastric Ulcers” value is given as 0.42 ± 0.10 and the “Score: Severity Lesions” value worked out at 0.20 ± 0.50. For the same compound, in the data set on gastric mucosa, the “MDA Content in nmol (100 mg Tissue)” value is given as 4.11 ± 0.18 nmol (100 mg Tissue). 285 ± 0.16 nM corresponded to half-maximal inhibition in data set [1] (IC50). On human COX-2, this compound came in with an IC50 of 17.7 ± 0.18 nM.
In data set [1], `COC(=O)C=C1SC(=NN=Cc2ccc(-n3nc(-c4ccccc4)ccc3=O)cc2)N(c2ccccc2)C1=O` [Compound 18, Methyl2-(4-oxo-2-((4-(6-oxo-3-phenylpyridazin-1(6H)-yl)benzylidene)hydrazinylidene) -3-phenylthiazolidin-5-ylidene)acetate] gave an IC50 of 255 ± 0.2 nM. On human COX-2, the “SI (Selectivity index)” value turned out to be 11.01, the IC50 worked out at 23.1 ± 0.5 nM and the “%SI” value worked out at 61.23%.
As for `COc1ccc2c(c1)c(CC(=O)O)c(C)n2C(=O)c1ccc(Cl)cc1` [Indomethacin, indomethacin, reference compound], the “MDA Content in nmol (100 mg Tissue)” value in the data set on gastric mucosa is 8.90 ± 0.18 nmol (100 mg Tissue).
